Measured values taken from US10689429B2, “Double-acylated GLP-1 compounds” (Novo Nordisk A/S, priority 2014, dated 2020).
Like-named read-outs stand apart in the source and are kept apart here.

Tests used:
[1] = biological target: T1, human GLP-1 receptor (Homo sapiens, UniProt P43220); assay: In vitro potency, CRE luciferase reporter gene assay in BHK cells expressing the human GLP-1 receptor; format: cell-based; conditions: average of duplicates;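 also: firefly luciferase luminescence read after 3 h incubation at 37 °C, compounds tested in an eight-point series from 0.01 pM to 100 nM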
T1 construct: expressed in transfected cells; host or cells: membranes from BHK cells, parent line BHKTS13, clone FCW467-12A

[2] = Pharmacokinetic study in mini pigs after i.v. administration; format: in vivo; conditions: female, Göttingen, pig, plasma, iv, 2 nmol/kg; read-out: Minipig iv PK, t½ (converted)
Description: The purpose of this study is to determine the protraction in vivo of the GLP-1 derivatives after i.v. administration to mini pigs, i.e. the prolongation of their time in the body and thereby their time of action. This was done in pharmacokinetic (PK) studies, where the terminal half-life of the derivative in question was determined. By terminal half-life is generally meant the period of time it takes to halve a certain plasma concentration, measured after the initial distribution phase.
Female Göttingen mini pigs obtained from Ellegaard Göttingen Minipigs (Dalmose, Denmark) at approximately 5 months of age and weighing approximately 10 kg were used in the studies. The mini pigs were housed in pens with straw as bedding, four to six together in each pen and fed restrictedly once or twice daily with Altromin 9023 mini pig diet (Chr. Petersen A/S, DK-4100 Ringsted). The pigs were used for repeated pharmacokinetic studies with a suitable wash-out period between successive GLP-1 derivative dosings. An acclimatisation period of 1 week was allowed during which time the mini pigs were trained to be fixated on the back for blood sampling and in slings for i.v. dosing. All handling, dosing and blood sampling of the animals was performed by trained and skilled staff.
The GLP-1 derivatives were dissolved in 50 mM sodium phosphate, 70 mM sodium chloride, 0.05% tween 80, pH 7.4 to a concentration of approximately 20 nmol/ml. Intravenous injections (the volume corresponding to usually 2 nmol/kg, for example 0.1 ml/kg) of the compounds were given as intravenous injections via a Venflon inserted in an ear vein, while the animals were placed un-anaesthetised in a sling. The dose volume was 0.1 ml/kg, and blood was sampled at predefined time points for up till 13 days post dosing (samples were taken with a syringe from a jugular vein). Blood samples (for example 0.8 ml) were collected in EDTA buffer (8 mM) and then centrifuged at 4° C. and 2000 G for 10 minutes.
Individual plasma concentration-time profiles were analysed by a non-compartmental model in WinNonlin v. […] 6.2 or 6.3 (Pharsight Inc., Mountain View, Calif., USA), or other relevant software for PK analysis, and the resulting terminal half-lives determined.

[3] = Pharmacokinetic studies in Beagle dogs (i.v. and p.o.); format: in vivo; conditions: dog, plasma; for half-life: iv, 2 nmol/kg, read-out: Beagle dogs iv PK, t½ (converted)
Description: Pharmacokinetic (PK) studies in Beagle dogs were conducted in order to determine a) the protraction of the GLP-1 derivatives after i.v. administration, and b) the bioavailability of the GLP-1 derivatives after p.o. administration.
By protraction is meant the prolongation of the time in the body and thereby the time of action of the GLP-1 derivatives. This was done in pharmacokinetic (PK) studies, where the terminal half-life of the derivative in question was determined. By terminal half-life is generally meant the period of time it takes to halve a certain plasma concentration, measured after the initial distribution phase.
The dogs were housed in pens (12 hours light: 12 hours dark) with softwood based granules as bedding, two together in each pen and fed restrictedly once daily with […] ™ Struvite Management Diet (Dechra Veterinary Products, UK). Exercise was permitted daily, whenever possible. The dogs were used for repeated pharmacokinetic studies with a suitable wash-out period between successive GLP-1 derivative dosings. An acclimatisation period of 4 weeks was allowed during which time the dogs were trained. All handling, dosing and blood sampling of the animals was performed by trained and skilled staff. The dogs were fasted overnight before dosing and from 0 to 4 h after dosing, but had ad libitum access to water during the whole period.
The dogs were housed in social groups (12 hours light: 12 hours dark), and fed individually and restrictedly once daily with Royal Canin Medium Adult dog (Royal Canin Products, China Branch, or Brogaarden A/S, Denmark). Exercise and group social was permitted daily, whenever possible. The dogs were used for repeated pharmacokinetic studies with a suitable wash-out period between successive GLP-1 derivative dosings. An appropriate acclimatisation period was given prior to initiation of the first pharmacokinetic study. All handling, dosing and blood sampling of the animals was performed by trained and skilled staff. Before the studies the dogs were fasted overnight and from 0 to 4 h after dosing. […]

[4] = Pharmacodynamic (PD) study in pigs, effect on food intake; format: in vivo
Description: The purpose of this experiment is to investigate the effect of the GLP-1 derivatives on food intake in pigs. This was done in a pharmacodynamic (PD) study as described below, in which food intake was measured from 1 to 4 days after administration of a single dose of the GLP-1 derivative, as compared to a vehicle-treated control group.
Female Landrace Yorkshire Duroc (LYD) pigs or Large White hybrid, approximately 3 months of age, weighing approximately 30-35 kg were used (n=3-4 per group). The animals were housed in a group for approximately 1 week during acclimatisation to the animal facilities. During the experimental period the animals were placed in individual pens at least 2 days before dosing and during the entire experiment for measurement of individual food intake.
The animals were fed ad libitum with pig fodder (Svinefoder Danish Top or HRC Sow and Weaner Diet) at all times both during the acclimatisation and the experimental period. Food intake was monitored on line by logging the weight of fodder every 15 minutes using the Mpigwin system (Ellegaard Systems, Faaborg, Denmark). Alternatively fodder was offered in the morning each day, and availability for the full 24-hour period was ensured. Any uneaten fodder was removed and weighed (manually) on the following morning, and replaced with fresh fodder.
The GLP-1 derivatives were dissolved in a phosphate buffer (50 mM sodium phosphate, 70 mM sodium chloride, 0.05% tween 80, pH 7.4) at concentrations of approximately 120 nmol/ml corresponding to doses of 3 nmol/kg. The phosphate buffer served as vehicle.
On the last day of each study, 2 or 4 days after dosing, a blood sample for measurement of plasma exposure of the GLP-1 derivative was taken from the heart in anaesthetised animals.
Food intake was calculated in 24 h intervals (0-24 h, 24-48 h, 48-72 h and 72-96 h).

[5] = EC50/pM (1% HSA), 1% HSA final assay concentration

T1 sequence (P43220 24-463): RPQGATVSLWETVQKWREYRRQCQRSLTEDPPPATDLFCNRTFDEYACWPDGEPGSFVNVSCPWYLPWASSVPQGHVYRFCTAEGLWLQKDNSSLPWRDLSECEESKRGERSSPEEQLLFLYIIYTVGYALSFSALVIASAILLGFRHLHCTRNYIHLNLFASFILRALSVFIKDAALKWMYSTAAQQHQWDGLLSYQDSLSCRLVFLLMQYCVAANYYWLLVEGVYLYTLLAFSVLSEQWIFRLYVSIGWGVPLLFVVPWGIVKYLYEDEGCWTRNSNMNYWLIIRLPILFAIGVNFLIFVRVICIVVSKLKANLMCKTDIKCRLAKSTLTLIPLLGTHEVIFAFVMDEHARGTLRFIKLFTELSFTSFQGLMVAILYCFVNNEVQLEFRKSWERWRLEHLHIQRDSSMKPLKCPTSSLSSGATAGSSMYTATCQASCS

Row | SMILES | EC50 ([1]; EC50/pM (0% HSA), 0% HSA) [pM] | EC50 [1, 5] [pM] | half-life [2] [h] | half-life [3] [h] | bioavailability ([3]; po, absolute bioavailability (F), enteric coated sodium caprate tablet with approximately 10 mg derivative (Example 33)) [%] | EC50 ([1]; 0% HSA, read-out: EC50/pM (0% HSA)) [pM] | PD in pig, food intake (% of vehicle) for hours 0-24 ([4]; single s.c. dose 3 nmol/kg, 0-24 h, NS = not significantly different from vehicle) | PD in pig, food intake (% of vehicle) for hours 24-48 ([4]; single s.c. dose 3 nmol/kg, 24-48 h, NS = not significantly different from vehicle) | PD in pig, food intake (% of vehicle) for hours 48-72 ([4]; single s.c. dose 3 nmol/kg, 48-72 h, NS = not significantly different from vehicle) | PD in pig, food intake (% of vehicle) for hours 72-96 ([4]; single s.c. dose 3 nmol/kg, 72-96 h, NS = not significantly different from vehicle) | reduction in food intake (in words) ([4]; single s.c. injection in pigs)
1 | CC[C@H](C)[C@H](NC(=O)[C@H](Cc1ccccc1)NC(=O)[C@H](CCC(=O)O)NC(=O)[C@H](CCCNC(=N)N)NC(=O)[C@H](C)NC(=O)[C@H](C)NC(=O)[C@H](CCC(N)=O)NC(=O)[C@H](CCC(=O)O)NC(=O)[C@H](CCC(=O)O)NC(=O)[C@H](CC(C)C)NC(=O)[C@H](Cc1ccc(O)cc1)NC(=O)[C@H](CO)NC(=O)[C@H](CO)NC(=O)[C@@H](NC(=O)[C@H](CC(=O)O)NC(=O)[C@H](CO)NC(=O)[C@@H](NC(=O)[C@H](Cc1ccccc1)NC(=O)[C@@H](NC(=O)CNC(=O)[C@H](CCC(=O)O)NC(=O)C(C)(C)NC(=O)[C@@H](N)Cc1c[nH]cn1)[C@@H](C)O)[C@@H](C)O)C(C)C)C(=O)N[C@@H](C)C(=O)N[C@@H](Cc1c[nH]c2ccccc12)C(=O)N[C@@H](CC(C)C)C(=O)N[C@H](C(=O)N[C@@H](CCCNC(=N)N)C(=O)NCC(=O)N[C@@H](CCCCNC(=O)COCCOCCNC(=O)COCCOCCNC(=O)CC[C@H](NC(=O)CCCCCCCCCOc1cccc(C(=O)O)c1)C(=O)O)C(=O)N[C@@H](CCCCNC(=O)COCCOCCNC(=O)COCCOCCNC(=O)CC[C@H](NC(=O)CCCCCCCCCOc1cccc(C(=O)O)c1)C(=O)O)C(=O)O)C(C)C [Example 15, N{Epsilon-36}-[2-[2-[2-[[2-[2-[2-[[(4S)-4-carboxy-4-[10-(3-carboxyphenoxy)decanoylamino]butanoyl]amino]ethoxy]ethoxy]acetyl]amino]ethoxy]ethoxy]acetyl], N{Epsilon-37}-[2-[2-[2-[[2-[2-[2-[[(4S)-4-carboxy-4-[10-(3-carboxyphenoxy)decanoylamino]butanoyl]amino]ethoxy]ethoxy]acetyl]amino]ethoxy]ethoxy]acetyl]-[Aib8,Glu22,Arg26,Arg34,Lys36,Lys37]-GLP-1-(7-37)-peptide] | 6.1 | 44 | 144 | 111 |  |  |  |  |  |  | 
2 | CC[C@H](C)[C@H](NC(=O)[C@H](Cc1ccccc1)NC(=O)[C@H](CCC(=O)O)NC(=O)[C@H](CCCNC(=N)N)NC(=O)[C@H](C)NC(=O)[C@H](C)NC(=O)[C@H](CCC(N)=O)NC(=O)[C@H](CCC(=O)O)NC(=O)[C@H](CCC(=O)O)NC(=O)[C@H](CC(C)C)NC(=O)[C@H](Cc1ccc(O)cc1)NC(=O)[C@H](CO)NC(=O)[C@H](CO)NC(=O)[C@@H](NC(=O)[C@H](CC(=O)O)NC(=O)[C@H](CO)NC(=O)[C@@H](NC(=O)[C@H](Cc1ccccc1)NC(=O)[C@@H](NC(=O)CNC(=O)[C@H](CCC(=O)O)NC(=O)C(C)(C)NC(=O)[C@@H](N)Cc1c[nH]cn1)[C@@H](C)O)[C@@H](C)O)C(C)C)C(=O)N[C@@H](C)C(=O)N[C@@H](Cc1c[nH]c2ccccc12)C(=O)N[C@@H](CC(C)C)C(=O)N[C@H](C(=O)N[C@@H](CCCNC(=N)N)C(=O)NCC(=O)N[C@@H](CCCCNC(=O)COCCOCCNC(=O)COCCOCCNC(=O)CC[C@H](NC(=O)CCCCCCCCCCOc1ccc(C(=O)O)cc1)C(=O)O)C(=O)N[C@@H](CCCCNC(=O)COCCOCCNC(=O)COCCOCCNC(=O)CC[C@H](NC(=O)CCCCCCCCCCOc1ccc(C(=O)O)cc1)C(=O)O)C(=O)O)C(C)C [Example 1, N{Epsilon-36}-[2-[2-[2-[[2-[2-[2-[[(4S)-4-carboxy-4-[11-(4-carboxyphenoxy)undecanoylamino]butanoyl]amino]ethoxy]ethoxy]acetyl]amino]ethoxy]ethoxy]acetyl], N{Epsilon-37}-[2-[2-[2-[[2-[2-[2-[[(4S)-4-carboxy-4-[11-(4-carboxyphenoxy)undecanoylamino]butanoyl]amino]ethoxy]ethoxy]acetyl]amino]ethoxy]ethoxy]acetyl]-[Aib8,Glu22,Arg26,Arg34,Lys36,Lys37]-GLP-1-(7-37)-peptide] | 1.2 | 136 | 103 | 85 | 2.4 |  |  |  |  |  | 
3 | CC[C@H](C)[C@H](NC(=O)[C@H](Cc1ccccc1)NC(=O)[C@H](CCC(=O)O)NC(=O)[C@H](CCCNC(=N)N)NC(=O)[C@H](C)NC(=O)[C@H](C)NC(=O)[C@H](CCC(N)=O)NC(=O)[C@H](CCC(=O)O)NC(=O)[C@H](CCC(=O)O)NC(=O)[C@H](CC(C)C)NC(=O)[C@H](Cc1ccc(O)cc1)NC(=O)[C@H](CO)NC(=O)[C@H](CO)NC(=O)[C@@H](NC(=O)[C@H](CC(=O)O)NC(=O)[C@H](CO)NC(=O)[C@@H](NC(=O)[C@H](Cc1ccccc1)NC(=O)[C@@H](NC(=O)CNC(=O)[C@H](CCC(=O)O)NC(=O)C(C)(C)NC(=O)[C@@H](N)Cc1c[nH]cn1)[C@@H](C)O)[C@@H](C)O)C(C)C)C(=O)N[C@@H](C)C(=O)N[C@@H](Cc1c[nH]c2ccccc12)C(=O)N[C@@H](CC(C)C)C(=O)N[C@H](C(=O)N[C@@H](CCCNC(=N)N)C(=O)NCC(=O)N[C@@H](CCCCNC(=O)COCCOCCNC(=O)COCCOCCNC(=O)COCCOCCNC(=O)COCCOCCNC(=O)CC[C@H](NC(=O)CCCCCCCCCCCCC(=O)O)C(=O)O)C(=O)N[C@@H](CCCCNC(=O)COCCOCCNC(=O)COCCOCCNC(=O)COCCOCCNC(=O)COCCOCCNC(=O)CC[C@H](NC(=O)CCCCCCCCCCCCC(=O)O)C(=O)O)C(=O)O)C(C)C [Example 20] |  | 5.8 |  |  |  | 2.7 | 10 % of vehicle | 18 % of vehicle | 65 % of vehicle | 81^NS % of vehicle | largest reduction in food intake
